The experiment relates to Plasmodium berghei. The experiment can be described thus: Luciferase/luciferin-expressing antifolate-resistant parasites were used to infect a culture of HepG2 cells that were pre-incubated with compounds. Infected hepatocytes emit light due to the luciferase reaction. Assay results are presented as the percent inhibition of light emission compared to control. […]. Format: functional. Conditions: sporozoite; for IC90: read-out: LUCIFERASE INFECTION ASSAY - IC90.

The mark [1] stands for this setting: read-out: LUCIFERASE INFECTION ASSAY - IC50.

Usually IC50 stands for the concentration needed to halve the response being measured. Usually IC90 stands for the concentration at which the effect reaches the 90% level. As to `C=CCOc1ccccc1C(=O)Nc1nc2c(s1)CN(C(=O)OC(C)(C)C)CC2`, the concentration for an effect of 90% (IC90) turned out to be 4.73 µM. In addition, the IC50 (HEPG2TOX_HILL_SLOPE 3.68, HEPG2TOX_R_SQUARED 0.942, PBLUC_HILL_SLOPE 10.6, PBLUC_R_SQUARED 0.381, read-out: LUCIFERASE INFECTION ASSAY - IC50) was found to be 3.84 µM.

With `C(=N\Nc1nc2ccccc2[nH]1)/c1sc(N2CCCCC2)nc1-c1cccs1`, the concentration for an effect of 90% (IC90) is > 10 µM. For the same molecule, the IC50 (HEPG2TOX_HILL_SLOPE 5.76, HEPG2TOX_R_SQUARED 0.476, PBLUC_HILL_SLOPE 1.87, PBLUC_R_SQUARED 0.581, read-out: LUCIFERASE INFECTION ASSAY - IC50) was found to be 6.38 µM.

Turning to `COc1ccc(CNc2ncnc3ccsc23)cc1`, the IC90 is > 10 µM. Moreover, under setting [1], the IC50 worked out at 8.88 µM.

For `O=C(CSc1nnc(-c2ccco2)n1-c1ccc2c(c1)OCCO2)Nc1cc(Cl)cc(Cl)c1`, the IC90 is > 6.56 µM. For the same molecule, under setting [1], the IC50 is > 6.56 µM.

With `CCN(CC)c1ccc(/C=N/Nc2ccc(C)cc2C)c(O)c1`, the IC90 was > 10 µM. Besides, the IC50 (FFLUC_HILL_SLOPE 17.2, FFLUC_R_SQUARED 0.349, PBLUC_HILL_SLOPE 3.28, PBLUC_R_SQUARED 0.115, read-out: LUCIFERASE INFECTION ASSAY - IC50) came out at 5.38 µM.

Consider `Brc1cnc(N2CCN(C(c3ccccc3)(c3ccccc3)c3ccccc3)CC2)nc1`, for which the IC90 was > 6.8 µM. In addition, under “FFLUC_HILL_SLOPE 9.83, FFLUC_R_SQUARED 0.0243, read-out: LUCIFERASE INFECTION ASSAY - IC50”, the IC50 was > 6.8 µM.

In the case of `Cc1nccn1Cc1cccc(CNC(=O)/C=C/c2cccc(Cl)c2Cl)c1`, the IC90 was > 10 µM. Also, under setting [1], the IC50 was > 10 µM.

As for `OC(COc1cccc(C(F)(F)F)c1)CN1CCN(c2nc(-c3ccccc3)ns2)CC1` (configuration not stated), the IC90 is > 7.1 µM. Besides, the IC50 (PBLUC_HILL_SLOPE 15.4, PBLUC_R_SQUARED 0.391, read-out: LUCIFERASE INFECTION ASSAY - IC50) is 6.73 µM.

Turning to `Oc1c(Cl)cc(Cl)cc1/C=N/NC(=S)NC1CCCC1`, the IC90 came to 3.83 µM. In addition, the IC50 (HEPG2TOX_HILL_SLOPE 9.72, HEPG2TOX_R_SQUARED 0.599, PBLUC_HILL_SLOPE 20.7, PBLUC_R_SQUARED 0.654, read-out: LUCIFERASE INFECTION ASSAY - IC50) came to 3.45 µM.

With `CC(OC(=O)c1ccccc1Nc1ccc(F)cc1)C(=O)N1CCCC1` (configuration not stated), the IC90 turned out to be 9.97 µM. Further, the IC50 (PBLUC_HILL_SLOPE 20.8, 17.7, PBLUC_R_SQUARED 0.125, 0.439, read-out: LUCIFERASE INFECTION ASSAY - IC50) worked out at 8.95 µM.

Consider `Nc1c(C(=O)c2ccc(Cl)cc2)sc2nc3c(c(-c4cccs4)c12)CCCC3`, for which the IC90 is > 7.77 µM. Further, the half-inhibitory concentration (IC50) (FFLUC_HILL_SLOPE 44.8, FFLUC_R_SQUARED 0.458, PBLUC_HILL_SLOPE 1.88, PBLUC_R_SQUARED 0.367, read-out: LUCIFERASE INFECTION ASSAY - IC50) was 5.01 µM.

On to `O=C(OCc1cc(=O)n2cc(Br)ccc2n1)C1(c2ccccc2)CC1`, for which the IC90 was > 10 µM. Also, the IC50 under setting [1] is > 10 µM.

As for `COc1cc(-c2[nH]nc3ccnc(-c4cccc(OC(F)(F)F)c4)c23)cc(OC)c1OC`, the IC90 is > 10 µM. Further, the IC50 under setting [1] is > 10 µM.

For `CSc1nc2c3c(sc2c2nnc(SCCN(C)C)n12)CCCC3`, the 90% effect concentration (IC90) was > 8.69 µM. Also, the 50% inhibitory concentration (IC50) (PBLUC_HILL_SLOPE 2.05, PBLUC_R_SQUARED 0.263, read-out: LUCIFERASE INFECTION ASSAY - IC50) turned out to be 5.45 µM.

With `CN(C)c1ccc(-c2cnc3cnc(-c4ccc(O)cc4)cn23)cc1`, the IC90 is 1.76 µM. Also, the IC50 (HEPG2TOX_HILL_SLOPE 0.921, HEPG2TOX_R_SQUARED 0.948, PBLUC_HILL_SLOPE 0.805, PBLUC_R_SQUARED 0.912, read-out: LUCIFERASE INFECTION ASSAY - IC50) came out at 0.115 µM.

On to `CCN1C(=O)N(CCCc2cccnc2)C(=O)C12CCN(Cc1ccc(-c3ccccc3C)cc1)CC2`, for which the concentration for an effect of 90% (IC90) is 2.68 µM. In addition, the IC50 (HEPG2TOX_HILL_SLOPE 4.7, HEPG2TOX_R_SQUARED 0.961, PBLUC_HILL_SLOPE 9.72, PBLUC_R_SQUARED 0.497, read-out: LUCIFERASE INFECTION ASSAY - IC50) was determined as 2.14 µM.

Turning to `CC(C)(C)c1ccc(C2=NNC(=NCCCN3CCOCC3)SC2)cc1`, the concentration for an effect of 90% (IC90) was found to be 9.2 µM. Further, the IC50 (PBLUC_HILL_SLOPE 3.6, PBLUC_R_SQUARED 0.412, read-out: LUCIFERASE INFECTION ASSAY - IC50) was determined as 5 µM.

Regarding `COc1ccc(-c2cnc3cnc(-c4ccc(C(=O)NC5CCCC5)cc4)cn23)cc1`, the IC90 was 7.76 µM. Further, the IC50 (PBLUC_HILL_SLOPE 11.3, PBLUC_R_SQUARED 0.296, read-out: LUCIFERASE INFECTION ASSAY - IC50) was 6.39 µM.

As for `Brc1cnc2nc(-c3ccccc3)[nH]c2c1`, the IC90 amounted to 7.03 µM. Further, the IC50 (HEPG2TOX_HILL_SLOPE 8.76, HEPG2TOX_R_SQUARED 0.602, PBLUC_HILL_SLOPE 4.6, PBLUC_R_SQUARED 0.128, read-out: LUCIFERASE INFECTION ASSAY - IC50) came out at 4.36 µM.

In the case of `CC(Cc1ccco1)NCc1ccc(-n2ccnc2)cc1` (configuration not stated), the IC90 was > 10 µM. Also, the IC50 under setting [1] was > 10 µM.

With `O=C1NC2(CCCc3ccccc32)C(=O)N1Cc1cc2ccccc2nc1Cl` (configuration not stated), the IC90 was determined as 9.89 µM. Besides, the half-maximal inhibitory concentration (IC50) (FFLUC_HILL_SLOPE 2.55, FFLUC_R_SQUARED 0.444, HEPG2TOX_HILL_SLOPE 2.36, HEPG2TOX_R_SQUARED 0.953, PBLUC_HILL_SLOPE 3.3, PBLUC_R_SQUARED 0.364, read-out: LUCIFERASE INFECTION ASSAY - IC50) is 5.08 µM.

Consider `O=C(Nc1nc(CN2CCOCC2)cs1)c1ccc(-c2ccc(Cl)cc2)s1`, for which the IC90 was > 10 µM. Further, the IC50 (HEPG2TOX_HILL_SLOPE 0.481, HEPG2TOX_R_SQUARED 0.864, PBLUC_HILL_SLOPE 0.848, PBLUC_R_SQUARED 0.477, read-out: LUCIFERASE INFECTION ASSAY - IC50) worked out at 0.826 µM.

`CCc1nc(N2CCN(C(=O)c3ccco3)CC2)c2ccc(Cl)cc2n1`: the IC90 is > 8.9 µM. Further, the IC50 (PBLUC_HILL_SLOPE 3.74, PBLUC_R_SQUARED 0.373, read-out: LUCIFERASE INFECTION ASSAY - IC50) was 6.91 µM.

For the molecule `O=C1NCC(CSc2nc3cc(Cl)ccc3c(=O)n2C2CCCCC2)O1` (configuration not stated), the IC90 was found to be 7.92 µM. The IC50 (PBLUC_HILL_SLOPE 3.9, PBLUC_R_SQUARED 0.536, read-out: LUCIFERASE INFECTION ASSAY - IC50) came out at 4.51 µM.

Turning to `COc1ccc(-c2ccnc3n[nH]c(-c4ccccc4)c23)cc1OC`, the IC90 stood at 3.3 µM. Further, under “HEPG2TOX_HILL_SLOPE 2.45, HEPG2TOX_R_SQUARED 0.911, PBLUC_HILL_SLOPE 2.73, PBLUC_R_SQUARED 0.663, read-out: LUCIFERASE INFECTION ASSAY - IC50”, the IC50 came to 1.48 µM.

Turning to `COC(=O)c1c(C(=O)OC)c2n(c1C)CCS2`, the IC90 was > 12.9 µM. The IC50 under setting [1] is > 12.9 µM.

As for `O=C(NC1CCSc2ccc(Cl)cc21)c1cc(Br)c[nH]1` (configuration not stated), the IC90 was > 10 µM. The 50% inhibitory concentration (IC50) (FFLUC_HILL_SLOPE 30.3, FFLUC_R_SQUARED 0.512, PBLUC_HILL_SLOPE 1.67, PBLUC_R_SQUARED 0.28, read-out: LUCIFERASE INFECTION ASSAY - IC50) is 5.71 µM.

Take `CCc1cccc(NS(=O)(=O)c2ccc(-n3ncc(Cl)c(Cl)c3=O)cc2)c1`: the IC90 came out at 9.42 µM. Further, the IC50 (HEPG2TOX_HILL_SLOPE 22.4, HEPG2TOX_R_SQUARED 0.361, PBLUC_HILL_SLOPE 19.8, PBLUC_R_SQUARED 0.355, read-out: LUCIFERASE INFECTION ASSAY - IC50) was 8.43 µM.

`O=C(c1ccc(Cn2cccn2)cc1)N(C/C=C/c1ccccc1)c1ccc2c(c1)OCCO2`: the IC90 came to 5.09 µM. In addition, the concentration for half-maximal inhibition (IC50) (PBLUC_HILL_SLOPE 14.4, PBLUC_R_SQUARED 0.81, read-out: LUCIFERASE INFECTION ASSAY - IC50) came out at 4.37 µM.

`Cc1c(C)n(CC(C)C)c2ncnc(Nc3nccs3)c12`: the IC90 was > 10.9 µM. In addition, the IC50 under setting [1] is > 10.9 µM.

Turning to `O=C(Nc1cccc(C(F)(F)F)c1)Nc1ccc2c(c1)no[n+]2[O-]`, the IC90 was 1.2 µM. The IC50 (HEPG2TOX_HILL_SLOPE 9.23, HEPG2TOX_R_SQUARED 0.804, PBLUC_HILL_SLOPE 15.5, PBLUC_R_SQUARED 0.688, read-out: LUCIFERASE INFECTION ASSAY - IC50) worked out at 1.04 µM.

On to `O=c1[nH]c2ccc(-c3csc(-c4ccsc4)n3)cc2[nH]1`, for which the IC90 is > 10 µM. Besides, the IC50 under setting [1] amounted to 4.23 µM.

Consider `NC(=O)c1cc(S(=O)(=O)N2CCCC2)ccc1OCc1nc2ccccc2s1`, for which the IC90 was > 10 µM. Further, under “HEPG2TOX_HILL_SLOPE 0.311, HEPG2TOX_R_SQUARED 0.0458, PBLUC_HILL_SLOPE 3.01, PBLUC_R_SQUARED 0.0562, read-out: LUCIFERASE INFECTION ASSAY - IC50”, the IC50 was 7.99 µM.

On to `O=C1/C(=C/c2cc(Cl)ccc2O)NC(=S)N1Cc1ccccc1Cl`, for which the IC90 was 1.37 µM. The IC50 (HEPG2TOX_HILL_SLOPE 1.93, HEPG2TOX_R_SQUARED 0.989, PBLUC_HILL_SLOPE 8.09, PBLUC_R_SQUARED 0.926, read-out: LUCIFERASE INFECTION ASSAY - IC50) amounted to 1.05 µM.

Regarding `CC(=O)c1c(C)[nH]c(C(=O)OCCOc2ccccc2)c1C`, the 90% effect concentration (IC90) was > 10 µM. Besides, the IC50 (PBLUC_HILL_SLOPE 1.04, PBLUC_R_SQUARED 0.638, read-out: LUCIFERASE INFECTION ASSAY - IC50) was determined as 1.81 µM.

With `CN(C)CCCNc1cc(N(C)C)c(N)c2c1C(=O)c1ccccc1C2=O`, the IC90 is > 9.01 µM. The IC50 (PBLUC_HILL_SLOPE 0.553, PBLUC_R_SQUARED 0.182, read-out: LUCIFERASE INFECTION ASSAY - IC50) is > 9.01 µM.
